Results on 1 substance are retold here after US5279956A, “Activated protein C polypeptides and anti-peptide antibodies, diagnostic methods and systems for inhibiting activated protein C” (The Scripps Research Institute, priority 1991, dated 1994).

The target of the test is T1, APC (Homo sapiens, UniProt P04070).
T1 construct: begins at amino acid residue position 158 and ends at 419; The light chain is 155 amino acid residues in length; tissue Factor IX concentrate from Immuno AG, Vienna; thrombin from Enzyme Research Laboratories
T1 sequence (P04070 212-461): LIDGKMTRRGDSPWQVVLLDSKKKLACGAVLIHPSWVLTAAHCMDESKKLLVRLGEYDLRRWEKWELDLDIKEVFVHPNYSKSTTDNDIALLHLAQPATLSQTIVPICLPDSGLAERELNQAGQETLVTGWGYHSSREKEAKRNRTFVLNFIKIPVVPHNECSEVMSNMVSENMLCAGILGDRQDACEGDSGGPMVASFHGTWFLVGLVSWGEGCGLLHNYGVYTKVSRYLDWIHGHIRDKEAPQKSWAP
T1 sequence (P04070 43-197): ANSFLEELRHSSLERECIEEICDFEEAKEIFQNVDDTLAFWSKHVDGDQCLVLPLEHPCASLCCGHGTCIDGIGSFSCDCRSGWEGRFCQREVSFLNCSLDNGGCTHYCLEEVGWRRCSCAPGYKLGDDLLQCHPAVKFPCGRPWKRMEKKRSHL
Nature of the test: APC-catalyzed inactivation of Factor Va, read out by Factor Va-prothrombinase assay. In kind it is biochemical. As for the experimental part:
FIG. 5 illustrates the APC-catalyzed inactivation of Factor Va in the presence of peptide-(390-404) and phospholipids. The assay was carried out in TBS-BSA and 2.5 mM CaCl2 at pH 7.4 as described in Example 5a5) using 0.25 nM APC, 10.0 nM Va, 50 μM phospholipid vesicles and 0 to 50 μM peptide-(390-404), that had been preincubated for 20 minutes at 22° C. with Factor Va. Factor Va inactivation by APC was indirectly determined using the cofactor activity of Factor Va in a prothrombinase assay as described in Example 5a5). Residual APC activity in the presence of the peptide was calculated from a standard curve.
The assay consisted of two parts wherein the APC catalyzed inactivation of Factor Va in the absence or presence of peptides was tested in the first part followed by the indirect determination of remaining Factor Va activity in a prothrombinase assay in the second part.
The APC catalyzed inactivation of Factor Va assays were performed in 96-well flat bottom ELISA plates (Stockwell Scientific, Walnut, Calif.). The reactions were performed either in the presence or absence of phospholipid vesicles to determine if peptide-(390-404) inhibited APC anticoagulant activity by inhibiting the binding of APC or its substrate to phospholipids or if it was independent of phospholipid surfaces. […]

pIC50: −log10 of the molar value. No end group written: not given here.

With “YGVYTKVSRYLDWIH-NH2 [peptide-(390-404), YGVYTKVSRYLDWIH]”, the pIC50 (50 μM phospholipid vesicles, 0.25 nM APC, 10.0 nM Va, read-out: half-maximal inhibition of APC-catalyzed inactivation of Factor Va) was 5.40. Further, the “inhibition of APC activity” value (absence of phospholipids, 5 nM APC, 40 nM Va, 50 μM peptide) is 94%.
